Test results as given in patent US10195156B2, “Compounds and compositions for intracellular delivery of agents” (ModernaTX, Inc., priority 2015, dated 2019).

Experiments:
[1] = system: modified luciferase expression; experiment: Expression of Luc in different organs (liver, lung, spleen, femur) 6 hours after intravenous administration; type: in vivo; conditions: i.v., 0.5 mpk
Experimental: The efficacy of the nanoparticle compositions presented in Tables 1, 1a, 17-1, 19-1, 20-1 and 21-1 was further evaluated by measuring the expression of modified luciferase in the liver, lung, spleen, and femur upon administration of a given composition. Formulations were administered intravenously to mice (n=3) at a dosage of 0.5 mpk and bioluminescence measured after 6 hours. The standard MC3 formulation and a PBS control were also tested.

[2] = system: luciferase (Luc) mRNA expression; experiment: Expression of Luc induced by sample formulations, whole-body bioluminescence after intravenous administration; type: in vivo; conditions: mice, i.v., 0.5 mg/kg
How it was run: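 Read-out is whole-body bioluminescence at 3, 6 and 24 h after a single intravenous dose of 0.5 mg/kg Luc mRNA in nanoparticle formulations. Groups of n=6 mice; PBS and standard MC3 formulation as references.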

[3] = Particle size and polydispersity index of nanoparticle compositions (Zetasizer Nano ZS); type: physicochemical
How it was run: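 Values are size and PDI readings from a Zetasizer Nano ZS. Measurements are taken in 1×PBS; zeta potential, by contrast, uses 15 mM PBS.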

[4] = Encapsulation efficiency of RNA (QUANT-IT RIBOGREEN RNA assay); type: physicochemical
How it was run: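 RiboGreen fluorescence (ex ~480, em ~520 nm) measured after 15 min at 37 °C on samples at ~5 μg/mL in TE, pH 7.5, ± 2% Triton X-100 solution. After blank subtraction, free RNA is given as intact-sample signal divided by disrupted-sample signal.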

[5] = pKa of nanoparticle compositions; type: physicochemical
[6] = Lipid clearance: % dose remaining in mouse liver 6 h and 24 h after administration of nanoparticle compositions; type: in vivo, CD-1 mice; conditions: CD-1 mice
From the text: In contrast, hEPO expression in rats induced by administration of a nanoparticle composition including a compound according to one of formulae (I), (Ia1)-(Ia6), (Ib), (II), (IIa), (III), and (IIIa) was substantially […] than that measured for MC3. […] Table 7c and 7d show additional protein expressions and clearance data from compositions with various compounds disclosed herein as compared to with MC3.

IL-6 = experiment: Cytokine production induced by sample formulations: IL-6; type: in vivo; conditions: mice, i.v., 0.5 mpk, 6 hours, in pg/mL (unit assumed)
How it was run: (§1)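 Cytokine levels were quantified at 6 hours in mice given the nanoparticle compositions i.v. at 0.5 mpk. MC3 standard formulation and PBS served as comparators.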

IP-10 = experiment: Cytokine production induced by sample formulations: IP-10; type: in vivo; conditions: mice, i.v., 0.5 mpk, 6 hours; for IP-10: in pg/mL (unit assumed)
How it was run: as §1

[7] = Table 1, rows without footnote mark
[8] = Table 1, rows without footnote mark (lipid:DOPE:cholesterol:PEG-DMG 40:20:38.5:1.5, Luc mRNA; MC3 standard formulation)

Row | SMILES | PDI [3, 7] | Size (nm) [3, 8] [nm] | EE (%) [4, 7] [%] | pKa [5, 7] | % Dose remaining 6 h CD-1 mice [6] [%] | % Dose remaining 24 h CD-1 mice [6] [%] | Total Flux Liver ([1]; Table 3, mice) | Total Flux Spleen ([1]; Table 3, mice) | Total Flux 6 hours ([2]; Table 2) | also measured
1 | CCCCCCCCCN(CCCCCCCCC)CCN(CCCCCCCCC)CC(=O)N1CC2CC1CN2C(=O)CN(CCCCCCCCC)CCCCCCCCC (stereo not drawn) [Compound 42, 2-(Dinonylamino)-1-(5-(N-(2-(dinonylamino)ethyl)-N-nonylglycyl)-2,5-diazabicyclo[2.2.1]heptan-2-yl)ethan-1-one] | 0.190 | 116.4 | 97.1 | 6.77 | 58 | 53 | 5.53E+09 | 2.29E+08 | 4.99E+10 | 
2 | CCCCCCCCCN(CCCCCCCCC)CCN(CCCCCCCC(=O)OC)CC(=O)N1CCN(C(=O)CN(CCCCCCCCC)CCCCCCCCC)CC1 [Compound 47, Methyl 8-((2-(dinonylamino)ethyl)(2-(4-(dinonylglycyl)piperazin-1-yl)-2-oxoethyl)amino)octanoate] | 0.180 | 89.8 | 53.1 | 6.82 | 1 | <1 | 4.95E+08 | 1.42E+08 | 2.64E+09 | 
3 | CCCCCCCCCCCCN(CCCCCCCCCCCC)CCN(CCCCCCCCCCCC)CC(=O)N1CC2CC1CN2C(=O)CN(CCCCCCCCC)CCCCCCCCC (stereo not drawn) [Compound 43, 2-((2-(Didodecylamino)ethyl)(dodecyl)amino)-1-(5-(dinonylglycyl)-2,5-diazabicyclo[2.2.1]heptan-2-yl)ethan-1-one] | 0.220 | 99.0 | 99.1 | 6.72 | 69 | 64 | 2.60E+08 | 4.52E+07 | 4.54E+09 | 
4 | CCCCCCCCCN(CCCCCCCCC)CCN(CCCCCCCCC)CC(=O)N1CCN(C(=O)CN(CCCCCCCCC)CCCCCCCC(=O)OC)CC1 [Compound 44, Methyl 8-((2-(4-(N-(2-(dinonylamino)ethyl)-N-nonylglycyl)piperazin-1-yl)-2-oxoethyl)(nonyl)amino)octanoate] | 0.190 | 94.9 | 89.5 | 6.82 | <1 | <1 | 1.11E+09 | 1.19E+08 | 1.07E+10 | 
5 | CCCCCCCCCCCCN(CCCCCCCCCCCC)CCN1CCN(C)CC1 [Compound 19-4, N-Dodecyl-N-(2-(4-methylpiperazin-1-yl)ethyl)dodecan-1-amine] |  |  |  |  |  |  |  |  |  | Total Flux Liver ([1]; Table 19-3, mice): 1.46E+05; Total Flux Lung ([1]; Table 19-3, mice): 4.49E+04; Total Flux Spleen ([1]; Table 19-3, mice): 3.69E+04; Total Flux 3 hours ([2]; Table 19-2): 6.61E+05; Total Flux 6 hours ([2]; Table 19-2): 4.75E+05; Total Flux 24 hours ([2]; Table 19-2): 3.44E+05; IL-6 (IL-6; Table 19-4): 129.2; IP-10 (IP-10; Table 19-4): 430.9; IP-10 induction, rank or comparison with IL-6 (in words) (IP-10): highest IP-10 expression; PDI ([3]; Table 19-1): 0.071; Size (nm) ([3]; Table 19-1): 111.4 nm; EE (%) ([4]; Table 19-1): 95.2%; pKa ([5]; Table 19-1): 7.09
6 | CCCCCCCCCN(CCCCCCCC(=O)OC)CCN(CCCCCCCCC)CC(=O)N1CCN(C(=O)CN(CCCCCCCCC)CCCCCCCCC)CC1 [Compound 46, Methyl 8-((2-((2-(4-(dinonylglycyl)piperazin-1-yl)-2-oxoethyl)(nonyl)amino)ethyl)(nonyl)amino)octanoate] | 0.160 | 81.8 | 97.5 | 6.77 | 1 | <1 | 3.84E+08 | 4.35E+07 | 5.26E+09 | 
7 | CCCCC/C=C\C/C=C\CCCCCCCCN(CCCCCCCC/C=C\C/C=C\CCCCC)CCOC [Compound 17-9, (9Z,12Z)—N-(2-Methoxyethyl)-N-((9Z,12Z)-octadeca-9,12-dien-1-yl)octadeca-9,12-dien-1-amine] |  |  |  |  |  |  |  |  |  | Total Flux Femur ([1]; Table 17-3, mice, femur): 2.29E+04; Total Flux Liver ([1]; Table 17-3, mice): 1.39E+06; Total Flux Lung ([1]; Table 17-3, mice): 1.40E+04; Total Flux Spleen ([1]; Table 17-3, mice): 3.72E+05; Total Flux 3 hours ([2]; Table 17-2): 6.87E+06; Total Flux 6 hours ([2]; Table 17-2): 9.97E+06; Total Flux 24 hours ([2]; Table 17-2): 3.43E+05; IL-6 (IL-6; Table 17-4): 35.2; IP-10 (IP-10; Table 17-4): 112; PDI ([3]; Table 17-1): 0.138; Size (nm) ([3]; Table 17-1): 87.1 nm; EE (%) ([4]; Table 17-1): 95.0%; pKa ([5]; Table 17-1): 4.93

Continued, in another order:

Row | PDI [3, 7] | Size (nm) [3, 8] [nm] | EE (%) [4, 7] [%] | pKa [5, 7] | % Dose remaining 6 h CD-1 mice [6] [%] | % Dose remaining 24 h CD-1 mice [6] [%] | SMILES | Total Flux Liver ([1]; Table 3, mice) | Total Flux Spleen ([1]; Table 3, mice) | Total Flux 6 hours ([2]; Table 2) | also measured
8 | 0.190 | 65.6 | 98.7 | 5.55 | 56 | 47 | CCCCCCCCCN(CCCCCCCCC)CCN(CCCCCCCCC)CCC1CCN(C(=O)CN(CCCCCCCCC)CCCCCCCCC)CC1 [Compound 50, 2-(Dinonylamino)-1-(4-(2-((2-(dinonylamino)ethyl)(nonyl)amino)ethyl)piperidin-1-yl)ethan-1-one] | 2.14E+07 | 1.94E+05 | 1.48E+08 | particle size, rank within the named table (in words) ([3]; comparison amongst compositions): smallest particles
9 | 0.100 | 94.4 | 97.5 | 6.77 | 46 | 40 | CCCCCCCCCN(CCCCCCCCC)CCC(=O)N1CCN(C(=O)CCN(CCCCCCCCC)CCN(CCCCCCCCC)CCCCCCCCC)CC1 [Compound 52, 3-(Dinonylamino)-1-(4-(3-((2-(dinonylamino)ethyl)(nonyl)amino)propanoyl)piperazin-1-yl)propan-1-one] | 1.18E+10 | 8.74E+08 | 9.85E+10 | 
10 | 0.099 | 111.4 | 79.3 | 6.99 | <1 | <1 | CCCCCCCCCN(CCCCCCCC(=O)OC)CCN(CCCCCCCC(=O)OC)CC(=O)N1CCN(C(=O)CN(CCCCCCCCC)CCCCCCCCC)CC1 [Compound 48, Methyl 8-((2-(4-(dinonylglycyl)piperazin-1-yl)-2-oxoethyl)(2-((8-methoxy-8-oxooctyl)(nonyl)amino)ethyl)amino)octanoate] | 1.04E+07 | 1.50E+07 | 1.05E+08 | 
11 | 0.190 | 76.6 | 98.4 | 6.44 | 54 | 41 | CCCCCCCCCCCCCCN(CCCCCCCCCCCCCC)CC(=O)N1CCN(C(=O)CN(CCCCCCCCC)CCN(CCCCCCCCC)CCCCCCCCC)CC1 [Compound 51, 2-((2-(Dinonylamino)ethyl)(nonyl)amino)-1-(4-(ditetradecylglycyl)piperazin-1-yl)ethan-1-one] | 3.55E+09 | 2.24E+07 | 6.70E+10 | 
